# Test results as given in PubChem BioAssay AID248 (DTP/NCI, 2004).
# Several values for one entry are separate records, joined by “and”; a condition that tells them apart may be missing. Equal entries are not always repeated. Toxic doses and inconclusive results are not listed.
# System: L1210 leukemia ip in BDF1 mice, survival T/C
# Test: NCI In Vivo Anticancer Drug Screen. Data for tumor model L1210 Leukemia (intraperitoneal) in B6D2F1 (BDF1) mice
# Conditions: higher = longer survival
# Outline: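 Each compound was tested against a transplantable tumor grown in mice. The endpoint was survival, with treated animals benchmarked against vehicle controls as a simple ratio.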
structure (smiles),measurement,setting,value
C[C@H](N)C(=O)N[C@@H]1[C@H]2C(=C(O)C[C@@H](O)[C@@H]2O)C(=O)O[C@@H]1C,T/C,"endpoint: mean survival time, dose: 16.0 mg/kg/injection, schedule: Q01DX Z (ip), vehicle: carboxymethylcellulose (CMC)",100 % of control
same,T/C,"endpoint: mean survival time, dose: 31.0 mg/kg/injection, schedule: Q01DX Z (ip), vehicle: carboxymethylcellulose (CMC)",97 % of control
same,T/C,"endpoint: mean survival time, dose: 37.5 mg/kg/injection, schedule: Q01DX010 (ip), vehicle: saline",102 % of control and 104 % of control
same,T/C,"endpoint: mean survival time, dose: 50.0 mg/kg/injection, schedule: Q01DX001 (ip), vehicle: saline",105 % of control
same,T/C,"endpoint: mean survival time, dose: 50.0 mg/kg/injection, schedule: Q#A X Z (ip), vehicle: saline",120 % of control
same,T/C,"endpoint: mean survival time, dose: 62.0 mg/kg/injection, schedule: Q01DX Z (ip), vehicle: carboxymethylcellulose (CMC)",112 % of control
same,T/C,"endpoint: mean survival time, dose: 75.0 mg/kg/injection, schedule: Q01DX010 (ip), vehicle: saline",104 % of control
same,T/C,"endpoint: mean survival time, dose: 88.0 mg/kg/injection, schedule: Q01DX015 (ip), vehicle: saline",118 % of control
same,T/C,"endpoint: mean survival time, dose: 100.0 mg/kg/injection, schedule: Q01DX001 (ip), vehicle: saline",104 % of control
same,T/C,"endpoint: mean survival time, dose: 100.0 mg/kg/injection, schedule: Q01DX006 (iv), vehicle: saline",101 % of control
same,T/C,"endpoint: mean survival time, dose: 100.0 mg/kg/injection, schedule: Q01DX Z (im), vehicle: saline",98 % of control
same,T/C,"endpoint: mean survival time, dose: 100.0 mg/kg/injection, schedule: Q01DX Z (sc), vehicle: saline",102 % of control
same,T/C,"endpoint: mean survival time, dose: 125.0 mg/kg/injection, schedule: Q01DX Z (ip), vehicle: carboxymethylcellulose (CMC)",124 % of control
same,T/C,"endpoint: mean survival time, dose: 125.0 mg/kg/injection, schedule: Q01DX Z (ip), vehicle: saline",116 % of control
same,T/C,"endpoint: mean survival time, dose: 130.0 mg/kg/injection, schedule: Q01DX015 (ip), vehicle: saline",114 % of control
same,T/C,"endpoint: mean survival time, dose: 150.0 mg/kg/injection, schedule: Q01DX005 (ip), vehicle: saline",104 % of control
same,T/C,"endpoint: mean survival time, dose: 150.0 mg/kg/injection, schedule: Q03HX016 (ip), vehicle: saline",103 % of control
same,T/C,"endpoint: mean survival time, dose: 150.0 mg/kg/injection, schedule: Q08DX002 (ip), vehicle: saline",116 % of control
same,T/C,"endpoint: mean survival time, dose: 200.0 mg/kg/injection, schedule: Q01DX001 (ip), vehicle: saline",110 % of control
same,T/C,"endpoint: mean survival time, dose: 200.0 mg/kg/injection, schedule: Q01DX006 (iv), vehicle: saline",104 % of control
same,T/C,"endpoint: mean survival time, dose: 200.0 mg/kg/injection, schedule: Q01DX015 (ip), vehicle: saline",120 % of control
same,T/C,"endpoint: mean survival time, dose: 200.0 mg/kg/injection, schedule: Q01DX Z (im), vehicle: saline",110 % of control
same,T/C,"endpoint: mean survival time, dose: 200.0 mg/kg/injection, schedule: Q01DX Z (sc), vehicle: saline",116 % of control
same,T/C,"endpoint: mean survival time, dose: 268.0 mg/kg/injection, schedule: Q## X004 (ip), vehicle: saline",108 % of control
same,T/C,"endpoint: mean survival time, dose: 300.0 mg/kg/injection, schedule: Q01DX001 (sc), vehicle: saline",96 % of control
same,T/C,"endpoint: mean survival time, dose: 300.0 mg/kg/injection, schedule: Q01DX005 (ip), vehicle: saline",116 % of control
same,T/C,"endpoint: mean survival time, dose: 300.0 mg/kg/injection, schedule: Q01DX009 (sc), vehicle: saline",113 % of control
same,T/C,"endpoint: mean survival time, dose: 300.0 mg/kg/injection, schedule: Q01DX Z (ip), vehicle: saline",160 % of control
same,T/C,"endpoint: mean survival time, dose: 300.0 mg/kg/injection, schedule: Q03HX016 (ip), vehicle: saline",110 % of control
same,T/C,"endpoint: mean survival time, dose: 300.0 mg/kg/injection, schedule: Q03HX024 (ip), vehicle: saline",109 % of control
same,T/C,"endpoint: mean survival time, dose: 300.0 mg/kg/injection, schedule: Q04DX003 (ip), vehicle: saline",119 % of control
same,T/C,"endpoint: mean survival time, dose: 300.0 mg/kg/injection, schedule: Q08DX002 (ip), vehicle: saline",111 % of control
same,T/C,"endpoint: mean survival time, dose: 320.0 mg/kg/injection, schedule: Q01DX015 (ip), vehicle: saline",156 % of control and 174 % of control
same,T/C,"endpoint: mean survival time, dose: 333.0 mg/kg/injection, schedule: Q02DX004 (ip), vehicle: saline",116 % of control
same,T/C,"endpoint: mean survival time, dose: 352.0 mg/kg/injection, schedule: Q## X032 (ip), vehicle: saline",116 % of control
same,T/C,"endpoint: mean survival time, dose: 400.0 mg/kg/injection, schedule: Q01DX001 (ip), vehicle: saline",105 % of control
same,T/C,"endpoint: mean survival time, dose: 400.0 mg/kg/injection, schedule: Q01DX006 (iv), vehicle: saline",113 % of control
same,T/C,"endpoint: mean survival time, dose: 400.0 mg/kg/injection, schedule: Q01DX013 (ip), vehicle: saline",178 % of control
same,T/C,"endpoint: mean survival time, dose: 400.0 mg/kg/injection, schedule: Q01DX Z (ip), vehicle: saline",151 % of control
same,T/C,"endpoint: mean survival time, dose: 400.0 mg/kg/injection, schedule: Q01DX Z (oral), vehicle: saline",104 % of control
same,T/C,"endpoint: mean survival time, dose: 400.0 mg/kg/injection, schedule: Q## X004 (ip), vehicle: saline",113 % of control
same,T/C,"endpoint: mean survival time, dose: 450.0 mg/kg/injection, schedule: Q01DX015 (ip), vehicle: saline",155 % of control
same,T/C,"endpoint: mean survival time, dose: 536.0 mg/kg/injection, schedule: Q## X032 (ip), vehicle: saline",119 % of control and 120 % of control
same,T/C,"endpoint: mean survival time, dose: 600.0 mg/kg/injection, schedule: Q01DX001 (sc), vehicle: saline",105 % of control
same,T/C,"endpoint: mean survival time, dose: 600.0 mg/kg/injection, schedule: Q01DX005 (ip), vehicle: saline",118 % of control
same,T/C,"endpoint: mean survival time, dose: 600.0 mg/kg/injection, schedule: Q01DX009 (sc), vehicle: saline",119 % of control
same,T/C,"endpoint: mean survival time, dose: 600.0 mg/kg/injection, schedule: Q03HX016 (ip), vehicle: saline",110 % of control
same,T/C,"endpoint: mean survival time, dose: 600.0 mg/kg/injection, schedule: Q03HX024 (ip), vehicle: saline",115 % of control
same,T/C,"endpoint: mean survival time, dose: 600.0 mg/kg/injection, schedule: Q04DX003 (ip), vehicle: saline",119 % of control
same,T/C,"endpoint: mean survival time, dose: 600.0 mg/kg/injection, schedule: Q08DX002 (ip), vehicle: saline",113 % of control
same,T/C,"endpoint: mean survival time, dose: 600.0 mg/kg/injection, schedule: Q## X004 (ip), vehicle: saline",111 % of control
same,T/C,"endpoint: mean survival time, dose: 656.0 mg/kg/injection, schedule: Q01DX015 (ip), vehicle: carboxymethylcellulose (CMC)",162 % of control
same,T/C,"endpoint: mean survival time, dose: 700.0 mg/kg/injection, schedule: Q01DX001 (ip), vehicle: saline",110 % of control and 117 % of control
same,T/C,"endpoint: mean survival time, dose: 700.0 mg/kg/injection, schedule: Q07DX Z (ip), vehicle: saline",114 % of control
same,T/C,"endpoint: mean survival time, dose: 800.0 mg/kg/injection, schedule: Q01DX Z (im), vehicle: saline",176 % of control
same,T/C,"endpoint: mean survival time, dose: 800.0 mg/kg/injection, schedule: Q01DX Z (oral), vehicle: saline",108 % of control
same,T/C,"endpoint: mean survival time, dose: 800.0 mg/kg/injection, schedule: Q01DX Z (sc), vehicle: saline",174 % of control
same,T/C,"endpoint: mean survival time, dose: 800.0 mg/kg/injection, schedule: Q## X032 (ip), vehicle: saline",117 % of control
same,T/C,"endpoint: mean survival time, dose: 900.0 mg/kg/injection, schedule: Q## X004 (ip), vehicle: saline",122 % of control
same,T/C,"endpoint: mean survival time, dose: 1084.0 mg/kg/injection, schedule: Q01DX001 (ip), vehicle: saline",94 % of control and 95 % of control
same,T/C,"endpoint: mean survival time, dose: 1200.0 mg/kg/injection, schedule: Q01DX001 (sc), vehicle: saline",101 % of control
same,T/C,"endpoint: mean survival time, dose: 1200.0 mg/kg/injection, schedule: Q03HX016 (ip), vehicle: saline",111 % of control
same,T/C,"endpoint: mean survival time, dose: 1200.0 mg/kg/injection, schedule: Q## X032 (ip), vehicle: saline",120 % of control and 121 % of control
same,T/C,"endpoint: mean survival time, dose: 1300.0 mg/kg/injection, schedule: Q01DX001 (ip), vehicle: saline",106 % of control
same,T/C,"endpoint: mean survival time, dose: 1350.0 mg/kg/injection, schedule: Q## X004 (ip), vehicle: saline",122 % of control
same,T/C,"endpoint: mean survival time, dose: 1400.0 mg/kg/injection, schedule: Q01DX001 (ip), vehicle: saline",106 % of control and 119 % of control
same,T/C,"endpoint: mean survival time, dose: 1400.0 mg/kg/injection, schedule: Q07DX Z (ip), vehicle: saline",120 % of control
same,T/C,"endpoint: mean survival time, dose: 1491.0 mg/kg/injection, schedule: Q01DX015 (ip), vehicle: carboxymethylcellulose (CMC)",155 % of control
same,T/C,"endpoint: mean survival time, dose: 1600.0 mg/kg/injection, schedule: Q01DX Z (im), vehicle: saline",160 % of control
same,T/C,"endpoint: mean survival time, dose: 1600.0 mg/kg/injection, schedule: Q01DX Z (oral), vehicle: saline",106 % of control
same,T/C,"endpoint: mean survival time, dose: 1650.0 mg/kg/injection, schedule: Q01DX001 (ip), vehicle: saline",96 % of control and 97 % of control
same,T/C,"endpoint: mean survival time, dose: 1687.0 mg/kg/injection, schedule: Q02DX004 (ip), vehicle: saline",166 % of control
same,T/C,"endpoint: mean survival time, dose: 2000.0 mg/kg/injection, schedule: Q01DX001 (ip), vehicle: saline",120 % of control
same,T/C,"endpoint: mean survival time, dose: 2024.0 mg/kg/injection, schedule: Q01DX001 (ip), vehicle: saline",115 % of control
same,T/C,"endpoint: mean survival time, dose: 2237.0 mg/kg/injection, schedule: Q01DX015 (ip), vehicle: carboxymethylcellulose (CMC)",108 % of control
same,T/C,"endpoint: mean survival time, dose: 2400.0 mg/kg/injection, schedule: Q01DX001 (sc), vehicle: saline",104 % of control
same,T/C,"endpoint: mean survival time, dose: 2400.0 mg/kg/injection, schedule: Q03HX016 (ip), vehicle: saline",119 % of control
same,T/C,"endpoint: mean survival time, dose: 2400.0 mg/kg/injection, schedule: Q08DX002 (ip), vehicle: saline",122 % of control
same,T/C,"endpoint: mean survival time, dose: 2464.0 mg/kg/injection, schedule: Q01DX001 (ip), vehicle: saline",100 % of control
same,T/C,"endpoint: mean survival time, dose: 2800.0 mg/kg/injection, schedule: Q01DX001 (ip), vehicle: saline",123 % of control
same,T/C,"endpoint: mean survival time, dose: 2800.0 mg/kg/injection, schedule: Q07DX Z (ip), vehicle: saline",119 % of control
same,T/C,"endpoint: mean survival time, dose: 3000.0 mg/kg/injection, schedule: Q01DX001 (ip), vehicle: saline",115 % of control
same,T/C,"endpoint: mean survival time, dose: 3200.0 mg/kg/injection, schedule: Q01DX Z (oral), vehicle: saline",108 % of control
same,T/C,"endpoint: median survival time, dose: 75.0 mg/kg/injection, schedule: Q01DX009 (ip), vehicle: saline",113 % of control
same,T/C,"endpoint: median survival time, dose: 133.0 mg/kg/injection, schedule: Q04DX003 (ip), vehicle: saline",97 % of control
same,T/C,"endpoint: median survival time, dose: 266.0 mg/kg/injection, schedule: Q04DX003 (ip), vehicle: saline",101 % of control
same,T/C,"endpoint: median survival time, dose: 532.0 mg/kg/injection, schedule: Q04DX003 (ip), vehicle: saline",110 % of control
same,T/C,"endpoint: median survival time, dose: 600.0 mg/kg/injection, schedule: Q01DX009 (ip), vehicle: saline",160 % of control
same,T/C,"endpoint: median survival time, dose: 1200.0 mg/kg/injection, schedule: Q01DX009 (ip), vehicle: saline",180 % of control
